Data reported in US9023789B2, “Amylin analogs and pharmaceutical compositions thereof” (Novo Nordisk A/S, priority 2012, dated 2015).
Values after ≈ are worked out from the molar mass of the structure shown. Read-outs that look alike come from different tables or passages of the source. Numbered stars: 1 amine (or outer) side, 2 acyl side, 3 side chain; on linkers, the order of the positions; unused ones are H or OH. Bridge positions count the residues as written; N and C are the ends. Side chains are listed from the residue outwards. Peptide text beside a SMILES is read from it. * marks the point of attachment. C20 diacid = O=C(O)CCCCCCCCCCCCCCCCCCC(=O)*; γGlu = O=C(O)[C@H](CCC(=O)[*:2])N[*:1]

Assays:
[1] = biological target: T1, human amylin receptor (membranes from Amylin 3(a)/CRE-luc cells) (Homo sapiens, UniProt O60896+P30988); test: ASSAY (V) binding to the human amylin receptor (SPA, 125I-rat amylin);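 also: competition binding of cell membranes (35 ng/µL) mixed with SPA beads in 384-well plates at 40 µL total volume, read by scintillation counting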
T1 construct: expressed in transfected cells
T1 sequence (P30988 25-474): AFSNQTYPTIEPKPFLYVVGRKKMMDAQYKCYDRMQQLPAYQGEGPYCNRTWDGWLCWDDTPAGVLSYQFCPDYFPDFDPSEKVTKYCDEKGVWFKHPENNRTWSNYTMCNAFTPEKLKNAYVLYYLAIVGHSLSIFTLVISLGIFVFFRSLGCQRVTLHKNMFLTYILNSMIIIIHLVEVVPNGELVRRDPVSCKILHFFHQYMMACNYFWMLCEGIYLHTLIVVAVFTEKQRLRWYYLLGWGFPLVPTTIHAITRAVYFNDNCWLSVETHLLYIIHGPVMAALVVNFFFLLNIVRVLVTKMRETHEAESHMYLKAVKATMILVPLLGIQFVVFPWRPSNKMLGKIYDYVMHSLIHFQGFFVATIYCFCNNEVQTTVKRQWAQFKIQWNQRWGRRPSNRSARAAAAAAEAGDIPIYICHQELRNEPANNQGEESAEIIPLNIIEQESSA
T1 sequence (O60896 24-148 partner): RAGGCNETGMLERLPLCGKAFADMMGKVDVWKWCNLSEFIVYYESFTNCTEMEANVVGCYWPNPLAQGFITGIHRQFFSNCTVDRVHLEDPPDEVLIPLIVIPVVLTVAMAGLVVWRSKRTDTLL

[2] = biological target: T2, rat amylin receptor (rat calcitonin receptor + rat RAMP 3) (Rattus norvegicus, UniProt P32214+Q9JJ73); test: ASSAY (VI) binding to the rat amylin receptor; conditions: for IC50: binding to rat amylin receptor, read-out: rAmylin-R bind IC50
T2 construct: expressed in transfected cells; host or cells: BHK tk'ts 13 (transient, FuGENE 6), membranes
T2 sequence (P32214 25-479 isoform P32214-2 limits assumed): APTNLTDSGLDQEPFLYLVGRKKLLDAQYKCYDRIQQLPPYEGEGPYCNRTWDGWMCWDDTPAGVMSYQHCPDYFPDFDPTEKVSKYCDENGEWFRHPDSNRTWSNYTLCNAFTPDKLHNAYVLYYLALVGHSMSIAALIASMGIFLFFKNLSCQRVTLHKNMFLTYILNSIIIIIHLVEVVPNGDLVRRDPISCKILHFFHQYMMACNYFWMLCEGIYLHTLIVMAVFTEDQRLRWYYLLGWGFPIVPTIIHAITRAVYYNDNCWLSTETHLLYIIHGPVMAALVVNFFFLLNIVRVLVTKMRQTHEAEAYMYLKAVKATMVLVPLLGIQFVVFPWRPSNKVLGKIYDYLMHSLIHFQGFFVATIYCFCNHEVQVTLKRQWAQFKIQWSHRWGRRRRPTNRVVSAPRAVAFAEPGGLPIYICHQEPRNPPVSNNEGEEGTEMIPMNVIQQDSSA
T2 sequence (Q9JJ73 23-147 partner): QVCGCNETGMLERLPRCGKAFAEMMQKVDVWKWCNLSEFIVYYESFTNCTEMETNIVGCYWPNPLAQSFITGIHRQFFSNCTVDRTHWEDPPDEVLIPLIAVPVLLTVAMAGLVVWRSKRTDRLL
Method: Assay (VI)—Determination of the Binding to the Rat Amylin Receptor […] The BHK tk′ts 13 cells were transiently transfected with rat calcitonin receptor using FuGENE® 6 (Roche), according to the manufacturer's recommendations. […] Approximately 48 hours after transfection, the cells were harvested and membranes were prepared.

rat calcitonin receptor = biological target: T3, rat calcitonin receptor (Rattus norvegicus, UniProt P32214); test: ASSAY (VIII) binding to the rat calcitonin receptor; conditions: Table 7, read-out: rCTR bind IC50
T3 construct: expressed in transfected cells; host or cells: BHK tk'ts 13 (transient, FuGENE 6), membranes
T3 sequence (P32214 25-479 isoform P32214-2 limits assumed): T2 sequence (P32214 25-479 isoform P32214-2 limits assumed)
Method: Assay (VIII)—Determination of Binding to the Rat Calcitonin Receptor
The BHK tk′ts 13 cells were transiently transfected with rat calcitonin receptor using FuGENE® 6 (Roche), according to the manufacturer's recommendations. Cells were grown in DMEM with 10% FBS and 1% Pen/Strep. Approximately 48 hours after transfection, the cells were harvested and membranes were prepared.

[3] = biological target: T4, human amylin 3(a) receptor (human calcitonin receptor + RAMP-3) in BHK570 cells (Homo sapiens, UniProt O60896+P30988); test: ASSAY (II)a functional assay, human amylin receptor (CRE luciferase); type: cell-based; conditions: for EC50: human amylin receptor functional potency, assay (II), read-out: hAmylin-R funct. EC50
T4 construct: expressed in transfected cells
Summary of the method: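 Receptor activation is measured as cAMP-driven CRE-luciferase expression in BHK cells expressing the calcitonin receptor, with RAMP-3 co-expressed to form the amylin 3(a) receptor. Cells are exposed to compound for 3 hours at 37° C, and luciferase is then quantified by luminescence.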

[4] = biological target: T5, human calcitonin (a) receptor in BHK570 cells (Homo sapiens, UniProt P30988); test: ASSAY (II)a functional assay, human calcitonin receptor (CRE luciferase); type: cell-based; conditions: read-out: hCTR funct. EC50
T5 construct: expressed in transfected cells
T5 sequence (P30988 25-474): T1 sequence (P30988 25-474)
Description: 1. Luciferase Assay Outline
Activation of calcitonin and amylin (coexpression of calcitonin receptor and receptor activity modifying proteins (RAMP)) receptors lead to increased intracellular concentrations of cAMP. Consequently, transcription is activated by promoters containing multiple copies of the cAMP response element (CRE). It is thus possible to measure amylin activity by the use of a CRE luciferase reporter gene introduced into BHK cells also expressing calcitonin or amylin receptors.
2. Construction of Calcitonin (a)- and Amylin 3(a)-Receptor/CRE-Luc Cell Line.
The cell line was further transfected with RAMP-3, using standard methods. This turns the calcitonin receptor into an amylin 3(a) receptor. Methotrexate, Neomycin, and Hygromycin are selection markers for luciferase, the calcitonin receptor, and RAMP-3, respectively.
To perform activity assays, BHK calcitonin (a) receptor- or amylin 3(a)-receptor/CRE-luc cells were seeded in white 96 well culture plates at a density of about 20.000 cells/well. […] After incubation overnight at 37° C. and 5% CO2, the growth medium was replaced by 50 μl/well assay medium (DMEM (without phenol red), Glutamax™, 10% FBS, and 10 mM Hepes, pH 7.4). Further, 50 μl/well of standard or sample in assay buffer were added. After 3 hours incubation at 37° C. and 5% CO2, the assay medium with standard or sample were removed and replaced by 100 μl/well PBS. Further, 100 μl/well LucLite™ was added. The plates were sealed and incubated at room temperature for 30 minutes. Finally, luminescence was measured on a TopCounter (Packard) in SPC (single photon counting) mode.

[5] = ASSAY (IV) determination of solubility; type: physicochemical
Method: Assay (IV)—Determination of Solubility
The polypeptide was dissolved in water at −500 nmol/ml and mixed 1:1 with a series of buffers (100 mM glycylglycine pH 3.0, 100 mM glycylglycine pH 4.0, 100 mM glycylglycine pH 5.0, 100 mM bistrispropane pH 6.0, 100 mM bistrispropane pH 6.5, 100 mM bistrispropane pH 7.0, 100 mM bistrispropane pH 7.5, 100 mM bistrispropane pH 8.0). After 18 hours at room temperature the samples were centrifuged and the polypeptide concentration determined by UPLC.

[6] = biological target: T6, human calcitonin receptor (Homo sapiens, UniProt P30988); test: ASSAY (VII) binding to the human calcitonin receptor (SPA, 125I-Calcitonin); conditions: read-out: hCTR bind IC50;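 also: cell membranes (35 ng/µL) combined with SPA beads in 40 µL of pH 7.4 Hepes buffer, 384-well format, signal counted on a TopCounter instrument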
T6 construct: expressed in transfected cells
T6 sequence (P30988 25-474): T1 sequence (P30988 25-474)

[7] = Table 5, selectivity, hCTR bind IC50 / hAmylin-R bind IC50
[8] = Table 7, human binding selectivity, included for comparison
[9] = Table 7, rat binding selectivity, rCTR IC50 / rAmylin-R IC50
[10] = human functional selectivity: hCTR funct. EC50 / hAmylin-R funct. EC50

CC(C)C[C@H](NC(=O)[C@H](CCCNC(=N)N)NC(=O)[C@H](CCC(N)=O)NC(=O)[C@@H](NC(=O)[C@H](C)NC(=O)[C@@H]1CSSC[C@H](NC(=O)[C@@H](N)CCCCNC(=O)CC[C@H](NC(=O)CC[C@H](NC(=O)CCCCCCCCCCCCCCCCCCC(=O)O)C(=O)O)C(=O)O)C(=O)N[C@@H](CC(N)=O)C(=O)N[C@@H]([C@@H](C)O)C(=O)N[C@@H](C)C(=O)N[C@@H]([C@@H](C)O)C(=O)N1)[C@@H](C)O)C(=O)N[C@@H](C)C(=O)N[C@@H](CC(=O)O)C(=O)N[C@@H](Cc1ccccc1)C(=O)N[C@@H](CC(C)C)C(=O)N[C@@H](CCCNC(=N)N)C(=O)N[C@@H](Cc1c[nH]cn1)C(=O)N[C@@H](CO)C(=O)N[C@@H](CO)C(=O)N[C@@H](CC(N)=O)C(=O)N1CCC[C@H]1C(=O)N[C@@H](Cc1ccccc1)C(=O)NCC(=O)N[C@@H](C)C(=O)N1CCC[C@H]1C(=O)N[C@@H](CC(C)C)C(=O)N[C@@H](CO)C(=O)N[C@@H](CO)C(=O)N[C@H](C(=O)N[C@@H](CC(N)=O)C(=O)N[C@H](C(=O)NCC(=O)N[C@@H](CO)C(=O)N[C@@H](CC(=O)O)C(=O)N[C@H](C(=O)N[C@@H](Cc1ccc(O)cc1)C(N)=O)[C@@H](C)O)C(C)C)[C@@H](C)O [Example 3] (H-K([γGlu-γGlu-C20 diacid])CNTATCATQRLADFLRHSSNPFGAPLSSTNVGSDTY-NH2; disulfide 2-7; N-terminus assumed)
Ratio hCT/hAmylin binding [1, 7]: 17.3 | Ratio hCT/hAmylin binding ([1]; Table 5a, selectivity, hCTR bind IC50 / hAmylin-R bind IC50): 17.3 | Ratio hCT/hAmylin binding ([1]; Table 5b, selectivity, hCTR bind IC50 / hAmylin-R bind IC50): 17.3 | Ratio hCT/hAmylin binding [1, 8]: 17.3 | Ratio hCT/hAmylin binding ([1]; Table 7a (preferred compounds), human binding selectivity, included for comparison): 17.3 | Ratio hCT/hAmylin binding ([1]; ratio of human calcitonin receptor binding IC50 to human amylin receptor binding IC50): 17.3 | IC50 ([2]; Table 7): 1 nM | Ratio rCT/rAmylin binding [2, 9]: 16.7 | Ratio rCT/rAmylin binding ([2]; Table 7a (preferred compounds), rat binding selectivity, rCTR IC50 / rAmylin-R IC50): 16.7 | Ratio rCT/rAmylin binding ([2]; ratio of rCTR bind IC50 to rAmylin-R bind IC50): 16.7 | IC50 (rat calcitonin receptor): 16.7 nM | EC50 [3]: 0.205 nM | Ratio hCT/hAmylin funct. [3, 10]: 6.7 | EC50 [4]: 1.38 nM | solubility at 18 h ([5]; bistrispropane buffer, pH 6.5, read-out: Solubility pH 6.5 Concentration): ≥ 200 µM | solubility at 18 h ([5]; bistrispropane buffer, pH 7.5, read-out: Solubility pH 7.5 Concentration): ≥ 200 µM | solubility at 18 h ([5]; bistrispropane buffer, pH 6.0, read-out: Solubility pH 6.0 Concentration): 189 µM (≈ 853 µg/mL) | solubility at 18 h ([5]; bistrispropane buffer, pH 7.0, read-out: Solubility pH 7.0 Concentration): 195 µM (≈ 880 µg/mL) | solubility at 18 h ([5]; bistrispropane buffer, pH 8.0, read-out: Solubility pH 8.0 Concentration): ≥ 200 µM | solubility at 18 h ([5]; glycylglycine buffer, pH 3.0, read-out: Solubility pH 3.0 Concentration): ≥ 200 µM | solubility at 18 h ([5]; glycylglycine buffer, pH 4.0, read-out: Solubility pH 4.0 Concentration): 96 µM (≈ 433 µg/mL) | solubility at 18 h ([5]; glycylglycine buffer, pH 5.0, read-out: Solubility pH 5.0 Concentration): 141 µM (≈ 636 µg/mL)

CC[C@H](C)[C@H](NC(=O)[C@@H]1CCCN1C(=O)CNC(=O)[C@H](Cc1ccccc1)NC(=O)[C@H](CC(N)=O)NC(=O)[C@@H]1CCCN1C(=O)[C@H](CO)NC(=O)[C@H](CO)NC(=O)[C@H](Cc1c[nH]cn1)NC(=O)[C@H](CCCNC(=N)N)NC(=O)[C@H](CC(C)C)NC(=O)[C@H](Cc1ccccc1)NC(=O)[C@H](CCC(=O)O)NC(=O)[C@H](C)NC(=O)[C@H](CC(C)C)NC(=O)[C@H](CCCNC(=N)N)NC(=O)[C@H](CCC(N)=O)NC(=O)[C@@H](NC(=O)[C@H](C)NC(=O)[C@@H]1CSSC[C@H](NC(=O)[C@H](CCCCN)NC(=O)CC[C@H](NC(=O)CCCCCCCCCCCCCCCCCCC(=O)O)C(=O)O)C(=O)N[C@@H](CC(N)=O)C(=O)N[C@@H]([C@@H](C)O)C(=O)N[C@@H](C)C(=O)N[C@@H]([C@@H](C)O)C(=O)N1)[C@@H](C)O)C(=O)N[C@@H](CC(C)C)C(=O)N1CCC[C@H]1C(=O)N1CCC[C@H]1C(=O)N[C@H](C(=O)N[C@@H](CC(N)=O)C(=O)N[C@H](C(=O)NCC(=O)N[C@@H](CO)C(=O)N[C@@H](CC(N)=O)C(=O)N[C@H](C(=O)N1CCC[C@H]1C(N)=O)[C@@H](C)O)C(C)C)[C@@H](C)O [Example 4] ({C20 diacid-γGlu}-KCNTATCATQRLAEFLRHSSPNFGPILPPTNVGSNTP-NH2; disulfide 2-7)
IC50 [6]: 0.688 nM | IC50 ([1]; Table 4, read-out: hAmylin-R bind IC50): 0.321 nM | Ratio hCT/hAmylin binding [1, 7]: 2.1 | Ratio hCT/hAmylin binding [1, 8]: 2.1 | IC50 ([2]; Table 7): 1.3 nM | Ratio rCT/rAmylin binding [2, 9]: 3.1 | Ratio hCT/hAmylin funct. ([3]; hCTR funct. EC50 / hAmylin-R funct. EC50): 1.2 | Ratio hCT/hAmylin funct. ([3]; hCTR funct. EC50 over hAmylin-R funct. EC50): 1.2 | EC50 [3]: 0.06 nM | Ratio hCT/hAmylin funct. [3, 10]: 1.2 | EC50 [4]: 0.07 nM
